Source: patent publication US20220087990A1, “APPLICATION OF RIFAMYCIN-QUINOLIZIDONE CONJUGATE MOLECULE AND PHARMACEUTICALLY ACCEPTABLE SALT THEREOF” (priority 2019, published 2022)
≈ marks a conversion by molar mass, not a printed value. Entries after “also recorded” stand apart in the source; their conditions may differ. Where two headings read alike, the source gives them in different places.

Tests used:
Assay type in all cases: cell-based
[1] = system: methicillin-resistant Staphylococcus aureus (MRSA) isolates; test: MIC measured by agar dilution method (CLSI); conditions: Staphylococcus aureus, MRSA, agar dilution
Protocol: (§1) Spontaneous mutation and minimal inhibit concentration (MIC) tested by agar dilution method, the above compounds are respectively prepared into a stock solution (100X) with a concentration 100 times the highest final concentration in corresponding solvents and used on the same day. Before use, I is further diluted with DMSO; and oxacillin, rifampicin and levofloxacin are further diluted with water.
(§2) Bacterial isolates: Staphylococcus aureus isolates are retrieved from the −80° C. storage room of Micromyx Culture Collection, thawed, plated onto Tryptic Soy Agar+5% sheep blood (Remel; Lenexa, Kans.), and then incubated aerobically at 35° C. overnight. S. aureus ATCC 29213 (MRSA; MMX 0100) was included during testing only for the purpose of quality control. Test Media: The isolates were tested in both the agar dilution MIC assay and the spontaneous mutation assay using Mueller-Hinton Agar (MHA; BD/BBL; Lot No. 6229829 & 4216798). Inocula of each isolate were suspended in cation-adjusted Mueller-Hinton Broth (CAMHB) (BD/BBL; Lot Nos. 5257869 & 6258541). Sodium chloride (Sigma-Aldrich; Lot No. SLBL0434V) was added to CAMHB at a final concentration of 2% when testing oxacillin. Dilutions of bacterial cell suspensions for the purpose of performing colony counts were also made in CAMHB.
(§3) MIC measured by agar dilution method: according to the recommendation from the Clinical and Laboratory Standards Institute (CLSI), the MIC value is measured by the agar dilution method. […] Each test agent was combined with molten MHA agar (50-55° C.) at a ratio of 0.2 mL of 100× test agent to 19.8 mL agar in a sterile tube, mixed gently, and then poured into a sterile petri plate (BD Falcon). Plates were allowed to solidify at room temperature. A 0.5 McFarland standard bacterial suspension was prepared, diluted 1:10 in CAMHB, and transferred to the wells of a stainless steel replicator block before stamping onto plates containing drug, resulting in 10^4 CFU/spot. After allowing the inoculum to dry on the surface of the agar, the plates were inverted, incubated aerobically at 35° C. for 20-24 hr, and inspected for growth.

[2] = system: Staphylococcus aureus ATCC 29213; test: MIC measured by agar dilution method, quality control strain; conditions: strain 100, MSSA QC strain
Protocol: as §1, §2, §3
In parallel experiments, a standard bacterium suspension with a […] turbidity of 0.5 is prepared as a standard inoculum for agar dilution analysis (10^4 CFU/point). […] In this step, the broths and drugs used in the spontaneous mutation analysis are used to confirm that the concentration of the drug stock solution can inhibit the growth of the standard inoculum. The quality of the levofloxacin stock solution is controlled by a standard inoculum and levofloxacin of 8-0.008 μg/mL, and separate agar dilution analysis is performed. […]

[3] = system: Staphylococcus aureus MMX 3265, 3270, 3278, and 6312; conditions: for Cell counts (mean): 1 used if no colonies
Protocol: Each test agent stock solution was prepared at 100× the final desired test concentration for the spontaneous mutation frequency assay agar plates.
The drug/agar mixture was dispensed into sterile 150×15 mm plates (BD Falcon) to a volume of 50 mL in each plate. The target inoculum for each spontaneous mutation plate was at least 10^9 CFU. Plates were allowed to solidify at room temperature.
The inocula for the spontaneous mutation frequency assay were prepared by using sterile cotton swabs to harvest colonies from freshly grown isolates and preparing a dense cell suspension (approximately 1.70 on the turbidity meter) in 6 mL of CAMHB. The viable count of this suspension was determined by plating serial ten-fold dilutions onto MHA and taking the average of duplicate counts. For the spontaneous mutation assay, 0.25 mL of inoculum was spread onto the surface of duplicate 150×15 mm plates for each drug concentration tested, allowed to dry, and then the plates were inverted and incubated at 35° C. for 48 hr prior to counting viable colonies. The spontaneous mutation frequency was calculated using the following equation:
Spontaneous mutation frequency=average number of colonies on selected plates/total number of cells incubated onto each plate
If there were no colonies on the antibiotic selection plates, the spontaneous mutation frequency was reported as less than or equal to the mutation frequency that would have resulted from the presence of one colony (e.g. 1/total number of cells inoculated onto the plate).

[4] = system: Staphylococcus aureus ATCC 29213; test: MIC measured by fluid broth microdilution method (quality control); conditions: ATCC29213
[5] = isolate 3265 LEV^R RIF^S, drug 0.5 μg/mL in plates (combination 0.5 each), inoculation 5.40E+09 CFU
[6] = isolate 3265 LEV^R RIF^S, drug 2 μg/mL in plates (combination 2 each), inoculation 5.40E+09 CFU
[7] = isolate 3265 LEV^R RIF^S, drug 8 μg/mL in plates (combination 8 each), inoculation 5.40E+09 CFU
[8] = isolate 3270 LEV^R RIF^S, drug 0.5 μg/mL in plates (combination 0.5 each), inoculation 5.30E+09 CFU
[9] = isolate 3270 LEV^R RIF^S, drug 2 μg/mL in plates (combination 2 each), inoculation 5.30E+09 CFU
[10] = isolate 3270 LEV^R RIF^S, drug 8 μg/mL in plates (combination 8 each), inoculation 5.30E+09 CFU
[11] = isolate 3278 LEV^S RIF^S, drug 0.5 μg/mL in plates (combination 0.5 each), inoculation 3.80E+09 CFU
[12] = isolate 3278 LEV^S RIF^S, drug 2 μg/mL in plates (combination 2 each), inoculation 3.80E+09 CFU
[13] = isolate 3278 LEV^S RIF^S, drug 8 μg/mL in plates (combination 8 each), inoculation 3.80E+09 CFU
[14] = isolate 6312 LEV^R RIF^S, drug 0.5 μg/mL in plates (combination 0.5 each), inoculation 3.90E+09 CFU
[15] = isolate 6312 LEV^R RIF^S, drug 2 μg/mL in plates (combination 2 each), inoculation 3.90E+09 CFU
[16] = isolate 6312 LEV^R RIF^S, drug 8 μg/mL in plates (combination 8 each), inoculation 3.90E+09 CFU

CO[C@H]1/C=C/O[C@@]2(C)Oc3c(C)c(O)c4c(O)c(c(/C=N/N5CCC(N(C)C6([C@@H]7CCN(c8c(F)cn9c(=O)c(C(=O)O)cc(C%10CC%10)c9c8C)C7)CC6)CC5)c(O)c4c3C2=O)NC(=O)/C(C)=C\C=C\[C@H](C)[C@H](O)[C@@H](C)[C@@H](O)[C@@H](C)[C@H](OC(C)=O)[C@@H]1C [I]
MIC ([1]; read-out: MIC over all strains under test, 23 MRSA isolates): 0.015 µg/mL (≈ 0.0124 µM) | MIC ([1]; strain 3085, LEV^S RIF^S): 0.015 µg/mL (≈ 0.0124 µM) | MIC ([1]; strain 3090, LEV^R RIF^S): 0.015 µg/mL (≈ 0.0124 µM) | MIC ([1]; strain 3094, LEV^R RIF^S): 0.015 µg/mL (≈ 0.0124 µM) | MIC ([1]; strain 3098, LEV^S RIF^S): 0.015 µg/mL (≈ 0.0124 µM) | MIC ([1]; strain 3265, LEV^R RIF^S): 0.015 µg/mL (≈ 0.0124 µM) | MIC ([1]; strain 3266, LEVR RIFS): 0.015 µg/mL (≈ 0.0124 µM) | MIC ([1]; strain 3270, LEV^R RIF^S): 0.015 µg/mL (≈ 0.0124 µM) | MIC ([1]; strain 3271, LEV^R RIF^S): 0.015 µg/mL (≈ 0.0124 µM) | MIC ([1]; strain 3277, LEV^S RIF^S): 0.015 µg/mL (≈ 0.0124 µM) | MIC ([1]; strain 3278, LEV^S RIF^S): 0.015 µg/mL (≈ 0.0124 µM) | MIC ([1]; strain 6312, LEV^R RIF^S): 0.015 µg/mL (≈ 0.0124 µM) | MIC ([1]; strain 6313, LEV^R RIF^S): 0.015 µg/mL (≈ 0.0124 µM) | MIC ([1]; strain 6315, LEV^R RIF^S): 0.015 µg/mL (≈ 0.0124 µM) | MIC ([1]; strain 6498, LEV^R RIF^S): 0.015 µg/mL (≈ 0.0124 µM) | MIC ([1]; strain 6501, LEV^R RIF^S): 0.015 µg/mL (≈ 0.0124 µM) | MIC ([1]; strain 6505, LEV^R RIF^S): 0.015 µg/mL (≈ 0.0124 µM) | MIC ([1]; strain 7771, LEV^R RIF^S): 0.015 µg/mL (≈ 0.0124 µM) | MIC ([1]; strain 7772, LEV^S RIF^S): 0.015 µg/mL (≈ 0.0124 µM) | MIC ([1]; strain 7773, LEV^R RIF^S): 0.015 µg/mL (≈ 0.0124 µM) | MIC ([1]; strain 7774, LEV^R RIF^S): 0.015 µg/mL (≈ 0.0124 µM) | MIC ([1]; strain 7775, LEV^R): 0.015 µg/mL (≈ 0.0124 µM) | MIC [2]: 0.015 µg/mL (≈ 0.0124 µM) | spontaneous mutants / development of drug resistance (in words) ([3]; four MRSA isolates, 0.5, 2 or 8 μg/mL): No spontaneous mutants are recovered; also recorded: none of the four MRSA strains under test develops drug resistance | Cell counts (mean) ([3]; isolate 3265, drug 0.5 μg/mL): 1^1 | Cell counts (mean) ([3]; isolate 3265, drug 2 μg/mL): 1 | Cell counts (mean) ([3]; isolate 3265, drug 8 μg/mL): 1 | Cell counts plate A [3, 5]: 0 | Cell counts plate B [3, 5]: 0 | Mutation frequency [3, 5]: <1.85E−10 | Cell counts plate A [3, 6]: 0 | Cell counts plate B [3, 6]: 0 | Mutation frequency [3, 6]: <1.85E−10 | Cell counts plate A [3, 7]: 0 | Cell counts plate B [3, 7]: 0 | Mutation frequency [3, 7]: <1.85E−10 | Cell counts (mean) ([3]; isolate 3270, drug 0.5 μg/mL): 1 | Cell counts (mean) ([3]; isolate 3270, drug 2 μg/mL): 1 | Cell counts (mean) ([3]; isolate 3270, drug 8 μg/mL): 1 | Cell counts plate A [3, 8]: 0 | Cell counts plate B [3, 8]: 0 | Mutation frequency [3, 8]: <1.89E−10 | Cell counts plate A [3, 9]: 0 | Cell counts plate B [3, 9]: 0 | Mutation frequency [3, 9]: <1.89E−10 | Cell counts plate A [3, 10]: 0 | Cell counts plate B [3, 10]: 0 | Mutation frequency [3, 10]: <1.89E−10 | Cell counts (mean) ([3]; isolate 3278, drug 0.5 μg/mL): 1 | Cell counts (mean) ([3]; isolate 3278, drug 2 μg/mL): 1 | Cell counts (mean) ([3]; isolate 3278, drug 8 μg/mL): 1 | Cell counts plate A [3, 11]: 0 | Cell counts plate B [3, 11]: 0 | Mutation frequency [3, 11]: <2.63E−10 | Cell counts plate A [3, 12]: 0 | Cell counts plate B [3, 12]: 0 | Mutation frequency [3, 12]: <2.63E−10 | Cell counts plate A [3, 13]: 0 | Cell counts plate B [3, 13]: 0 | Mutation frequency [3, 13]: <2.63E−10 | Cell counts (mean) ([3]; isolate 6312, drug 0.5 μg/mL): 1 | Cell counts (mean) ([3]; isolate 6312, drug 2 μg/mL): 1 | Cell counts (mean) ([3]; isolate 6312, drug 8 μg/mL): 1 | Cell counts plate A [3, 14]: 0 | Cell counts plate B [3, 14]: 0 | Mutation frequency [3, 14]: <2.56E−10 | Cell counts plate A [3, 15]: 0 | Cell counts plate B [3, 15]: 0 | Mutation frequency [3, 15]: <2.56E−10 | Cell counts plate A [3, 16]: 0 | Cell counts plate B [3, 16]: 0 | Mutation frequency [3, 16]: <2.56E−10 | MIC [4]: 0.25 µg/mL (≈ 0.207 µM)
